Measured values published in patent publication US5532242A, “Piperazine derivatives as 5-HT receptors antagonists” (John Wyeth & Brother, Limited, priority 1992, dated 1996).

How the values were obtained:
5-HT1A receptor [1] = biological target: T1, 5-HT1A receptor (Rattus norvegicus, UniProt P19327); test: 5-HT1A receptor binding activity in rat hippocampal membrane homogenate
T1 construct: rat hippocampal membrane homogenate; from tissue; host or cells: rat hippocampal membrane homogenate
T1 sequence (P19327 1-422): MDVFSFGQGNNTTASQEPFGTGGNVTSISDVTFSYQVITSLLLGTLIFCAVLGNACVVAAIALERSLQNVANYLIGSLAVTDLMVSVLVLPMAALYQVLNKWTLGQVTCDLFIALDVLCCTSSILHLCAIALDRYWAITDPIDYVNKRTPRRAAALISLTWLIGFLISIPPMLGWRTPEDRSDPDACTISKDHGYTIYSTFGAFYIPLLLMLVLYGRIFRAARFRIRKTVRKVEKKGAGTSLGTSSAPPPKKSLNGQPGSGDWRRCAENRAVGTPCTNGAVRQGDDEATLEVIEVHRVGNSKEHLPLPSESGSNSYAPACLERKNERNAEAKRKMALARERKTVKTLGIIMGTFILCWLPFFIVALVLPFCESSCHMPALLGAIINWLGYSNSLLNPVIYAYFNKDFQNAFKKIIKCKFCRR
Protocol: The compounds of the invention were tested for 5-HT1A receptor binding activity in rat hippocampal membrane homogenate by the method of B S Alexander and M D Wood, J Pharm Pharmacol, 1988, 40, 888-891.

5-HT1A receptor [2] = biological target: T2, 5-HT1A receptor (Cavia porcellus, UniProt A0A286Y074); test: 5-HT1A receptor antagonism: antagonism of 5-carboxamidotryptamine in the guinea-pig ileum in vitro; conditions: read-out: pA2 (converted)
T2 construct: guinea-pig ileum in vitro; from tissue; host or cells: guinea-pig ileum
T2 sequence (A0A286Y074 1-421): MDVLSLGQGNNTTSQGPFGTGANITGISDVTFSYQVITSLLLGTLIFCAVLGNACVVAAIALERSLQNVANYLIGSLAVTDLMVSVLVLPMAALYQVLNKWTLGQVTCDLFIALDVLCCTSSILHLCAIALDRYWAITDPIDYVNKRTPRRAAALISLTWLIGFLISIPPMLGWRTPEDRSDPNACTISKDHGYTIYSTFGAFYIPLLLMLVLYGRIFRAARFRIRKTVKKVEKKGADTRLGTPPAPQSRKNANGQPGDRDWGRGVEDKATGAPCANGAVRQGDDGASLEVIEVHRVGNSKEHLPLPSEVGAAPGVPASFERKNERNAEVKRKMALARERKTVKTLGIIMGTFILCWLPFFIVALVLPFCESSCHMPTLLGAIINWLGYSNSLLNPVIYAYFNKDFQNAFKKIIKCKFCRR
Protocol: The compounds are tested for 5-HT1A receptor antagonism activity in a test involving the antagonism of 5-carboxamidotryptamine in the guinea-pig ileum in vitro (based upon the procedure of Fozard et al, Br J Pharmac, 1985, 86, 601P ).

Compound: COc1ccccc1N1CCN(CCN(C(=O)C2CCCCC2)c2ccccc2)CC1 [Example 2, N-(2-(4-(2-Methoxyphenyl)piperazin-1-yl)ethyl)-N-phenylcyclohexanecarboxamide]
- IC50 (5-HT1A receptor [1]): 4 nM
- Kb (5-HT1A receptor [2]): 6.31 nM
